Molecules are shown by their SMILES.

What is called melting point is the temperature of the solid-liquid transition. `Cc1ccc(-c2noc3nc(C)cc(C(=O)O)c23)cc1` registered a melting point of 261 to 263 °C.
The figure for `Nc1nc(-c2ccccc2Cl)co1` is 137 to 139 °C.
Under `O=C(Nc1ccsc1C(=O)O)c1ccoc1` stands 207 to 209 °C.
Under `CCc1cc2c(=O)[nH]cnc2s1` stands 183 to 185 °C.
In turn, `Cn1ccnc1CN1CCC(C(=O)O)CC1` showed a melting point of 173 to 175 °C.
Under `NNC(=O)CN1C(=O)COc2ccccc21` stands 152 to 154 °C; under `Cc1ccc(C(=O)c2c(N)sc3c2CCC3)cc1`, 153 to 157 °C; under `COc1ccc([N+](=O)[O-])cc1NC(=O)C(C)Cl` (configuration not stated), 131 to 133 °C.
Turning to `Cn1c(=O)[nH]c(=O)c2[nH]c(CCC(=O)O)nc21`, the melting point was in the range of 322 to 324 °C.
The figure for `Cn1c(C(=O)O)c(Br)c2ccccc21` is 204 to 206 °C; for `O=C(O)c1cn(-c2ccccc2)nc1-c1ccc(-c2ccccc2)cc1` it is 255 to 257 °C.
Consider `CC(C)(C)NS(=O)(=O)c1ccc(C(=O)O)cc1`, for which the melting point fell in the range of 181 to 185 °C.
Compound `Cc1c(C(=O)O)sc2nc3n(c(=O)c12)CCC3` displayed a melting point of 281 to 283 °C.
Under `Clc1ccnc2c(Br)cccc12` stands 148 to 150 °C; under `CC(CSc1ccccc1)C(=O)O` (configuration not stated), 40 to 42 °C.
Under `Cc1cc(N2C(=O)c3ccccc3C2=O)ccc1C(=O)O` stands 271 to 273 °C; under `COC(=O)c1csc(S(=O)(=O)Cl)c1`, 54 to 56 °C.
`CN1CCN(c2ccc(C#N)cn2)CC1` registered a melting point of 67 to 69 °C.
The figure for `CC(C)c1nn(-c2ccc(Br)cc2)cc1C=O` is 99 to 101 °C; for `Cc1nc2ccccc2c(=O)n1-c1ccc(C(=O)O)cc1` it is 220 to 222 °C.
`CC(=O)N(C)c1ccccc1N` returned a melting point of 146 to 148 °C.
Under `CN1C(=O)N(CC(=O)O)C(=O)C12CCCCC2` stands 220 to 222 °C; under `O=C(CCl)NCCC1=CCCCC1`, 60 to 62 °C; under `Nc1cccc(Br)c1CO`, 94 to 96 °C.
Under `O=C(CCN1CCOCC1)c1ccc2ccccc2c1` stands 67 to 69 °C; under `CCN(CC)S(=O)(=O)c1ccc2c(c1)CCCN2`, 131 to 133 °C; under `Nc1ccc(CCn2cc(Br)cn2)cc1`, 65 to 67 °C.
The figure for `NNC(=O)c1nnc(-c2ccccc2)o1` is 173 to 175 °C.
With `COc1cc2c(cc1OC)C(c1ccccc1)N(C(=O)CCl)CC2` (configuration not stated), the melting point fell in the range of 218 to 222 °C.
Under `NCc1ccc(-c2nc3ccccc3s2)o1` stands 124 to 126 °C; under `CC1(O)CCC(N)CC1` (configuration not stated), 89 to 91 °C; under `O=C(O)c1ccc(S(=O)(=O)Nc2ccccc2Cl)cc1`, 111 to 113 °C.
`Nc1c(Cl)cc(S(=O)(=O)Cl)cc1Cl` gave a melting point of 134 to 136 °C.
The figure for `O=C1CCc2cc3c(cc21)OCCO3` is 118 to 120 °C; for `O=C(O)CSc1cccc(C(F)(F)F)c1` it is 19 to 21 °C.
Under `O=C(O)c1ccc(-c2nnn[nH]2)cc1` stands 282 to 284 °C.
Under `OCc1cn(-c2ccc(Cl)c(Cl)c2)nn1` stands 142 to 144 °C; under `Cc1cccc(CNc2ccc3[nH]c(=O)[nH]c3c2)c1`, 216 to 218 °C.
In turn, `O=C1CCc2[nH]c3ccccc3c2C1` had a melting point of 129 to 131 °C.
Under `Cc1ccccc1SCC(=O)O` stands 108 to 110 °C; under `O=C1C=CC(=O)N1c1cccc(Cl)c1`, 86 to 88 °C; under `Oc1cccc(CNC2CCC(O)CC2)c1` (configuration not stated), 180 to 182 °C.
Compound `CC1(C)C2CCC1(CS(=O)(=O)F)C(=O)C2` (configuration not stated) had a melting point of 79 to 81 °C.
The compound `CN(Cc1nn[nH]n1)C(=O)c1ccccc1` had a melting point of 136 to 138 °C.
Under `CN(C)c1cc(C(=O)O)c2ccccc2n1` stands 259 to 261 °C.
`c1ccc2c(c1)CC(n1cccn1)CN2` (configuration not stated) gave a melting point of 102 to 104 °C.
The figure for `O=C(O)c1ccc(S(=O)(=O)N2CCCCC2)cc1` is 270 to 272 °C.

(Values after a melting point compilation (Tetko et al.).)
